Data on 21 compounds can be found in US11987586B1 (TAKEDA PHARMACEUTICAL COMPANY LIMITED, priority 2022, dated 2024).

The assay has as its target T1, human OX2 receptor (Homo sapiens, UniProt O43614).
T1 construct: expressed in transfected cells
T1 sequence (O43614 1-444): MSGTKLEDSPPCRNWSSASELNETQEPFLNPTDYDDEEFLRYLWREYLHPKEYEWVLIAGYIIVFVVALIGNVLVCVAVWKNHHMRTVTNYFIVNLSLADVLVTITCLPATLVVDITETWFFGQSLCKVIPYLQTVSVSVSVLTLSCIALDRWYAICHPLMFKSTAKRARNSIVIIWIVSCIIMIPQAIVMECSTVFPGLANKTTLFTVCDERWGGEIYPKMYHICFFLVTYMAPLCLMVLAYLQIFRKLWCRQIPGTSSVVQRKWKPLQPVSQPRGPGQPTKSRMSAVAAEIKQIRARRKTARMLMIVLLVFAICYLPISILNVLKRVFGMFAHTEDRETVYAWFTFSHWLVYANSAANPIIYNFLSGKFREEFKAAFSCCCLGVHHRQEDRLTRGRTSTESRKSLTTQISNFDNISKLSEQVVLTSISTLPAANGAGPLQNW
The assay is described as follows: Measurement of orexin type 2 receptor agonist activity (calcium fluorescence, Fluo-4, FDSS). The format is cell-based. Particulars: 3 uM test compound; CHO cells expressing human OX2 receptor; DMSO = 0%, 10 nM orexin A (human) = 100%. As for the experimental part:
In order to obtain cell clones that stably express human orexin type 2 receptor, human orexin type 2 (residues 1-444, NCBI Reference Sequence: AK314279) was constructed in a pcDNA3.1 (+) vector (Invitrogen) to express in mammalian cells. This plasmid DNA was transfected into CHO-K1 cells by electroporation, and stable clones were obtained by limiting dilution using resistance to G418 as a selection marker.
CHO cells in which human OX2 receptor was forcibly expressed were seeded at 10,000 cells/well into a 384-well black transparent bottom plate (BD falcon), and were incubated at 37° C., 5% CO2 for 1 day after incubation at room temperature for 30 minutes. After removing the cell plate medium, assay buffer containing calcium indicator A (HBSS (Thermo Fisher Scientific), 20 mM HEPES (Thermo Fisher Scientific), 0.1% BSA (Sigma-Aldrich), 2.5 μg/mL Fluo-4 AM (Dojin Kagaku), 0.08% Pluronic F127 (Dojin Kagaku), 1.25 mM probenecid (Dojin Kagaku)) was added at 30 μL/well. After incubation in a 5% CO2 incubator at 37° C. for 30 minutes, it was incubated at room temperature for another 30 minutes. Add 10 μL/well of the test compound diluted with assay buffer B (HBSS, 20 mM HEPES, 0.1% BSA), and use FDSS μCELL (Hamamatsu Photonics) to measure the fluorescence value every 1 second for 1 minute, and then every 2 seconds for 1 minute. It was measured for 1 minute and 40 seconds. The amount of fluorescence value when DMSO is added instead of the test compound is defined as 0%, and the amount of fluorescence value when orexin A (human) (Peptide Institute) with a final concentration of 10 nM is added is defined as 100%. The activity (%) of the test compound was calculated.

In the case of `CS(=O)(=O)N[C@@H]1CN2C(=O)N(c3noc4ccc(F)c(-c5c(F)cccc5F)c34)C[C@@H]2C1(F)F` [Example 38, N-{(6R,7aR)-2-[4-(2,6-difluorophenyl)-5-fluoro-1,2-benzoxazol-3-yl]-7,7-difluoro-3-oxohexahydro-1H-pyrrolo[1,2-c]imidazol-6-yl}methanesulfonamide], the “OX2R agonist activity (3 uM, %)” value is listed as 111%.
The figure for `CCS(=O)(=O)N[C@@H]1Cn2c(cn(-c3noc4cc(Cl)cc(-c5c(F)cc(F)cc5F)c34)c2=O)C1(F)F` [Example 39, N-{(6R)-2-[6-chloro-4-(2,4,6-trifluorophenyl)-1,2-benzoxazol-3-yl]-7,7-difluoro-3-oxo-2,5,6,7-tetrahydro-3H-pyrrolo[1,2-c]imidazol-6-yl}ethanesulfonamide] is 106%; for `CS(=O)(=O)N[C@@H]1CN2C(=O)N(c3noc4cc(Cl)c(F)c(-c5c(F)cc(F)cc5F)c34)C[C@@H]2C1(F)F` [Example 40, N-{(6R,7aR)-2-[6-chloro-5-fluoro-4-(2,4,6-trifluorophenyl)-1,2-benzoxazol-3-yl]-7,7-difluoro-3-oxohexahydro-1H-pyrrolo[1,2-c]imidazol-6-yl}methanesulfonamide] it is 103%.
As to `CCS(=O)(=O)N[C@H]1C[C@H]2CN(c3noc4cc(OC)cc(-c5c(F)cccc5F)c34)C(=O)N2C1` [Example 41, N-{(6S,7aS)-2-[4-(2,6-difluorophenyl)-6-methoxy-1,2-benzoxazol-3-yl]-3-oxohexahydro-1H-pyrrolo[1,2-c]imidazol-6-yl}ethanesulfonamide], the “OX2R agonist activity (3 uM, %)” value was 100%.
The figure for `O=C1N(c2noc3cccc(-c4c(F)cccc4F)c23)C[C@@H]2C[C@H](NS(=O)(=O)C(F)F)CN12` [Example 43, N-{(6S,7aS)-2-[4-(2,6-difluorophenyl)-1,2-benzoxazol-3-yl]-3-oxohexahydro-1H-pyrrolo[1,2-c]imidazol-6-yl}-1,1-difluoromethanesulfonamide] is 100%.
For `CS(=O)(=O)N[C@@H]1Cn2c(cn(-c3noc4cc(F)cc(-c5c(F)cccc5F)c34)c2=O)C1(F)F` [Example 46, N-{(6R)-2-[4-(2,6-difluorophenyl)-6-fluoro-1,2-benzoxazol-3-yl]-7,7-difluoro-3-oxo-2,5,6,7-tetrahydro-3H-pyrrolo[1,2-c]imidazol-6-yl}methanesulfonamide], the “OX2R agonist activity (3 uM, %)” value is reported as 102%.
In the case of `CS(=O)(=O)N[C@@H]1CN2C(=O)N(c3noc4ccc(F)c(-c5c(F)cc(F)cc5F)c34)C[C@@H]2C1(F)F` [Example 47, N-{(6R,7aR)-7,7-Difluoro-2-[5-fluoro-4-(2,4,6-trifluorophenyl)-1,2-benzoxazol-3-yl]-3-oxohexahydro-1H-pyrrolo[1,2-c]imidazol-6-yl}methanesulfonamide], the “OX2R agonist activity (3 uM, %)” value was found to be 91%.
`CCS(=O)(=O)N[C@H]1C[C@@H]2CN(c3noc4cccc(-c5c(F)cccc5F)c34)C(=O)N2C1` [Example 49, N-{(6S, 7aR)-2-[4-(2,6-difluorophenyl)-1,2-benzoxazol-3-yl]-3-oxohexahydro-1H-pyrrolo[1,2-c]imidazol-6-yl}ethanesulfonamide]: the “OX2R agonist activity (3 uM, %)” value was found to be 94%.
As for `CCS(=O)(=O)N[C@H]1C[C@H]2CN(c3nsc4cccc(-c5c(F)cccc5F)c34)C(=O)N2C1` [Example 55, N-{(6S,7aS)-2-[4-(2,6-difluorophenyl)-1,2-benzothiazol-3-yl]-3-oxohexahydro-1H-pyrrolo[1,2-c]imidazol-6-yl}ethanesulfonamide], the figure is 108%; as for `CCS(=O)(=O)N[C@H]1C[C@H]2CN(c3noc4cc(C5CC5)cc(-c5c(F)cccc5F)c34)C(=O)N2C1` [Example 56, N-{(6S,7aS)-2-[6-cyclopropyl-4-(2,6-difluorophenyl)-1,2-benzoxazol-3-yl]-3-oxohexahydro-1H-pyrrolo[1,2-c]imidazol-6-yl}ethanesulfonamide], 99%.
In the case of `CCS(=O)(=O)N[C@@H]1CN2C(=O)N(c3noc4cccc(-c5c(F)cccc5F)c34)C[C@]2(C)C1` [Example 57, N-{(6S,7aS)-2-[4-(2,6-difluorophenyl)-1,2-benzoxazol-3-yl]-7a-methyl-3-oxohexahydro-1H-pyrrolo[1,2-c]imidazol-6-yl}ethanesulfonamide], the “OX2R agonist activity (3 uM, %)” value worked out at 88%.
For `CCS(=O)(=O)N[C@H]1C[C@H]2CN(c3noc4c(Cl)ccc(-c5c(F)cccc5F)c34)C(=O)N2C1` [Example 58, N-{(6S,7aS)-2-[7-chloro-4-(2,6-difluorophenyl)-1,2-benzoxazol-3-yl]-3-oxohexahydro-1H-pyrrolo[1,2-c]imidazol-6-yl}ethanesulfonamide], the “OX2R agonist activity (3 uM, %)” value was found to be 88%.
The figure for `CCS(=O)(=O)N[C@H]1C[C@H]2CN(c3noc4cccc(-c5c(F)cc(F)cc5F)c34)C(=O)N2C1` [Example 65, N-{(6S,7aS)-3-oxo-2-[4-(2,4,6-trifluorophenyl)-1,2-benzoxazol-3-yl]hexahydro-1H-pyrrolo[1,2-c]imidazol-6-yl}ethanesulfonamide] is 99%; for `CCS(=O)(=O)N[C@H]1C[C@H]2CN(c3noc4ccc(F)c(-c5c(F)cccc5F)c34)C(=O)N2C1` [Example 66, N-{(6S,7aS)-2-[4-(2,6-difluorophenyl)-5-fluoro-1,2-benzoxazol-3-yl]-3-oxohexahydro-1H-pyrrolo[1,2-c]imidazol-6-yl}ethanesulfonamide] it is 97%.
Regarding `CCS(=O)(=O)N[C@@H]1CN2C(=O)N(c3noc4cc(Cl)cc(-c5c(F)cccc5F)c34)C[C@@H]2C1(F)F` [Example 67, N-{(6R,7aR)-2-[6-chloro-4-(2,6-difluorophenyl)-1,2-benzoxazol-3-yl]-7,7-difluoro-3-oxohexahydro-1H-pyrrolo[1,2-c]imidazol-6-yl}ethanesulfonamide], the “OX2R agonist activity (3 uM, %)” value was 97%.
As for `CCS(=O)(=O)N[C@@H]1Cn2c(cn(-c3noc4cc(Cl)cc(-c5c(F)cccc5F)c34)c2=O)C1(F)F` [Example 68, N-{(6R)-2-[6-chloro-4-(2,6-difluorophenyl)-1,2-benzoxazol-3-yl]-7,7-difluoro-3-oxo-2,5,6,7-tetrahydro-3H-pyrrolo[1,2-c]imidazol-6-yl}ethanesulfonamide], the “OX2R agonist activity (3 uM, %)” value turned out to be 109%.
With `CCS(=O)(=O)N[C@@H]1CN2C(=O)N(c3noc4cc(F)cc(-c5c(F)cccc5F)c34)C[C@@H]2C1(F)F` [Example 69, N-{(6R,7aR)-2-[4-(2,6-difluorophenyl)-6-fluoro-1,2-benzoxazol-3-yl]-7,7-difluoro-3-oxohexahydro-1H-pyrrolo[1,2-c]imidazol-6-yl}ethanesulfonamide], the “OX2R agonist activity (3 uM, %)” value amounted to 96%.
For `CCS(=O)(=O)N[C@@H]1Cn2c(cn(-c3noc4cccc(-c5c(F)cccc5F)c34)c2=O)C1(C)C` [Example 70, N-{(6S)-2-[4-(2,6-difluorophenyl)-1,2-benzoxazol-3-yl]-7,7-dimethyl-3-oxo-2,5,6,7-tetrahydro-3H-pyrrolo[1,2-c]imidazol-6-yl}ethanesulfonamide], the “OX2R agonist activity (3 uM, %)” value is reported as 105%.
The figure for `CS(=O)(=O)N[C@@H]1CN2C(=O)N(c3noc4cc(F)cc(-c5c(F)cccc5F)c34)C[C@@H]2C1(F)F` [Example 72, N-{(6R,7aR)-2-[4-(2,6-Difluorophenyl)-6-fluoro-1,2-benzoxazol-3-yl]-7,7-difluoro-3-oxohexahydro-1H-pyrrolo[1,2-c]imidazol-6-yl}methanesulfonamide] is 98%; for `CS(=O)(=O)N[C@@H]1Cn2c(cn(-c3noc4cc(Cl)cc(-c5c(F)cccc5F)c34)c2=O)C1(F)F` [Example 73, N-{(6R)-2-[6-chloro-4-(2,6-difluorophenyl)-1,2-benzoxazol-3-yl]-7,7-difluoro-3-oxo-2,5,6,7-tetrahydro-3H-pyrrolo[1,2-c]imidazol-6-yl}methanesulfonamide] it is 105%.
As for `CS(=O)(=O)N[C@@H]1Cn2c(cn(-c3noc4cc(C(F)(F)F)cc(-c5c(F)cccc5F)c34)c2=O)C1(F)F` [Example 74, N-{(6R)-2-[4-(2,6-difluorophenyl)-6-(trifluoromethyl)-1,2-benzoxazol-3-yl]-7,7-difluoro-3-oxo-2,5,6,7-tetrahydro-3H-pyrrolo[1,2-c]imidazol-6-yl}methanesulfonamide], the figure is 104%.
